From patent US20060089263A1, “2-Propenal and related enal compounds for controlling plant pests and weeds in soil” (priority 2004, published 2006)

Tests used:
Type in all cases: in vivo
[1] = system: reniform nematode (Rotylenchulus reniformis); test: Greenhouse nematicidal experiment, soil infested with reniform nematode; settings: compared with 2-propenal
Text: (§1) The nematicidal properties of 2-propenal (CH2═CH—CHO; acrolein), 2-butenal (CH3—CH═CH—CHO; crotonaldehyde), and trans 2-pentenal (CH3—CH2—CH═CH—CHO) were studied in greenhouse experiments with soil severely infected with the reniform nematode (Rotylenchulus reniformis). The soil was collected from a cotton field and was a sandy loam with pH 6.2, organic matter content <1.0% and cation exchange capacity <10 meq/100 gms soil. The soil was mixed 50:50 by volume, with washed fine siliceous river sand and the mixture, here-from referred to as soil. The moist soil (50% field capacity) was apportioned in 1 Kg quantities contained in 4L polyethylene bags. The compounds were applied to the soil in the bags, and after thorough mixing the treated soil was transferred to 1 L capacity, 4-inch-diam. plastic (PVC) pots which were then covered with a polyethylene bag (1 mil) held tightly to the outside wall of the pot with a rubber band. The covered pots were placed on a greenhouse table and after 10 days the bags were removed and soil samples for nematode analyses were collected from each pot. The pots were planted with “Young” soybean (5 seed/pot.) Soybean plants were grown for 8 weeks when they were removed, soil samples taken for nematode analysis (salad bowl incubation technique), and data were collected on shoot height, and fresh weights of shoots and roots. The relative health of the root systems was determined using a subjective scale. […] Values between 1 and 5 represented intermediate degrees of damage. The roots were incubated to assess nematode populations in them.
(§2) Emulsifiable concentrates (EC's) were prepared for all three compounds containing 10% (w/w) emulsogen. The EC's were used to make aqueous emulsions containing 2.5% active ingredient; these emulsions were then used to deliver the compounds to soil. Each compound was delivered using the following rates: 0, 25, 50, 75, 100, 125, 150, 175, 200, 225, 250, 275, 300 mgs/kg soil. In every experiment there were 6 replications (pots) per treatment arranged in a randomized complete block design.
(§3) All data were analyzed according to standard procedures for analysis of variance. Fisher's Least Significant Differences (FLSD) were calculated when F values were significant and are included in the graphs. Curvilineal analyses were conducted according to standard procedures with the TableCurve 2D program.

microbivorous nematodes = test: Greenhouse nematicidal experiment, microbivorous nematodes in soil and roots; settings: compared with 2-propenal
Text: as §1, §2, §3

tomato plant = test: Tomato plant growth study, vigor rating; parameters: key to TOMATO VIGOR 1-5SCALE: 1 = very little vigor, 5 = very vigorous; settings: 350 lb ai/a
Text: This example together with the data in Table 1 includes results of a study conducted to test the affects of acrolein on tomato plant growth. The first column in Table 1 includes, from left to right the treatment number, the treatment name, the rate of application, and the unit for that rate. The treatment name includes two separate treatment ingredients for each treatment number. The top name of each treatment name lists the test additive, and the bottom listing of the treatment name lists any additional herbicide applied in that particular treatment number. For example, in treatment number 5, methyl bromide was applied with a sandea herbicide. The rate and the rate unit headings, for this study, lists the amount of application of the treatment ingredients in pounds of active ingredients per acre (lb ai/a). Column 2 of Table 1 lists a vigor rating for each tomato plant on a scale of 1 to 5, wherein a 1 rating indicates a tomato plant with very little vigor, and a 5 rating indicates a very vigorous tomato plant. Column 2 lists vigor scale ratings for each treatment number taken on Aug. 17, 2005, and column 3 lists a vigor rating for each treatment taken on Aug. 25, 2005.

Compound | response patterns of nematodes to applications (reniform) [1] | response patterns of nematodes to applications (microbivorous) (microbivorous nematodes) | TOMATO VIGOR 1-5SCALE (tomato plant; 17/Aug/05, no herbicide) | TOMATO VIGOR 1-5SCALE (tomato plant; 17/Aug/05, no herbicide, listed as METHYL BROMIDE 2) | TOMATO VIGOR 1-5SCALE (tomato plant; 17/Aug/05, with SANDEA 0.25 lb ai/a) | TOMATO VIGOR 1-5SCALE (tomato plant; 17/Aug/05, with SANDEA 0.25 lb ai/a, listed as METHYL BROMIDE 2) | TOMATO VIGOR 1-5SCALE (tomato plant; 17/Aug/05, with V-10142 0.25 lb ai/a) | TOMATO VIGOR 1-5SCALE (tomato plant; 17/Aug/05, with V-10142 0.25 lb ai/a, listed as METHYL BROMIDE 2) | TOMATO VIGOR 1-5SCALE (tomato plant; 25/Aug/05, no herbicide) | TOMATO VIGOR 1-5SCALE (tomato plant; 25/Aug/05, with SANDEA 0.25 lb ai/a) | TOMATO VIGOR 1-5SCALE (tomato plant; 25/Aug/05, with SANDEA 0.25 lb ai/a, listed as METHYL BROMIDE 2) | TOMATO VIGOR 1-5SCALE (tomato plant; 25/Aug/05, with V-10142 0.25 lb ai/a) | TOMATO VIGOR 1-5SCALE (tomato plant; 25/Aug/05, with V-10142 0.25 lb ai/a, listed as METHYL BROMIDE 2) | change in vigor scale rating over the term of the test (tomato plant; no additional herbicide)
2-butenal | very similar to those described for 2-propenal | very similar to those described for 2-propenal |  |  |  |  |  |  |  |  |  |  |  | 
CC/C=C/C=O [2-pentenal, trans-2-pentenal] | very similar to those described for 2-propenal | very similar to those described for 2-propenal |  |  |  |  |  |  |  |  |  |  |  | 
CBr [METHYL BROMIDE 1, methyl bromide, reference compound] |  |  | 2.500 | 2.250 | 2.250 | 2.500 | 2.000 | 2.500 | 2.500 | 2.750 | 2.500 | 2.650 | 2.500 | no change
